Species on record: Rattus norvegicus
Experiment: Open TG-GATES - Regimen: Daily Repeat
Assay type: toxicity, organism-based, Sprague-Dawley
Parameters: regimen Daily Repeat, gender Male, age 6 weeks
Conditions: in vivo, po, 20 mg/kg, route gavage, dose level High; for APTT / Bas / Eos / Fbg / Hb / Lym / MCH / MCHC / MCV / Mono / Neu / PT / Plat / RBC / Ret / WBC: tissue Blood; for KIDNEY_L / KIDNEY_R / KIDNEY_TOTAL: tissue Kidney; for LIVER: tissue Liver; for ALP / ALT / AST / BUN / CRE / Ca / Cl / DBIL / GLC / IP / K / LDH / Na / PL / RALB / TBIL / TC / TG / TP / gamma-GTP: tissue Plasma

For `OCCN1CCN(CCCN2c3ccccc3Sc3ccc(C(F)(F)F)cc32)CC1` [FLUPHENAZINE], the TERMINAL_BW (72 h, time 3 day) was 168.5 g, the APTT (72 h, time 3 day) was 13.2 s and the Bas (72 h, time 3 day) was 0%. The Eos (72 h, time 3 day) was 1.2%, the Fbg (72 h, time 3 day) was 176.8 mg/dL and the Hb (72 h, time 3 day) was 16 g/dL. For the same molecule, the Lym (72 h, time 3 day) was 84.6%, the MCH (72 h, time 3 day) was 21.1 pg and the MCHC (72 h, time 3 day) was 33.1%. The MCV (72 h, time 3 day) was 63.6 fL, the Mono (72 h, time 3 day) was 5.2% and the Neu (72 h, time 3 day) was 9.2%. It also gave a PT (72 h, time 3 day) of 12.7 s, a Plat (72 h, time 3 day) of 131.6 x10_4/uL and an RBC (72 h, time 3 day) of 756.8 x10_4/ul. It also gave a Ret (72 h, time 3 day) of 1.2%, a WBC (72 h, time 3 day) of 83.2 x10_2/uL and a KIDNEY_L (72 h, time 3 day) of 0.9 g. The KIDNEY_R (72 h, time 3 day) was 0.9 g, the KIDNEY_TOTAL (72 h, time 3 day) was 1.7 g and the LIVER (72 h, time 3 day) was 7.4 g. It also gave an ALP (72 h, time 3 day) of 538 IU/L, an ALT (72 h, time 3 day) of 28 IU/L and an AST (72 h, time 3 day) of 76.2 IU/L. It also gave a BUN (72 h, time 3 day) of 23.4 mg/dL, a CRE (72 h, time 3 day) of 0.6 mg/dL and a Ca (72 h, time 3 day) of 10.1 mg/dL. For the same molecule, the Cl (72 h, time 3 day) was 108.4 meq/L, the DBIL (72 h, time 3 day) was 0.036 mg/dL and the GLC (72 h, time 3 day) was 180.4 mg/dL. It also gave an IP (72 h, time 3 day) of 7 mg/dL, a K (72 h, time 3 day) of 4.2 meq/L and an LDH (72 h, time 3 day) of 189 IU/L. It also gave a Na (72 h, time 3 day) of 140 meq/L, a PL (72 h, time 3 day) of 128 mg/dL and an RALB (72 h, time 3 day) of 4.2 g/dL. For the same molecule, the TBIL (72 h, time 3 day) was 0.3 mg/dL, the TC (72 h, time 3 day) was 74.6 mg/dL and the TG (72 h, time 3 day) was 48.4 mg/dL. The TP (72 h, time 3 day) was 5.8 g/dL, the gamma-GTP (72 h, time 3 day) was 1 IU/L and the TERMINAL_BW ([…], time 7 day) was 190 g. For the same molecule, the TERMINAL_BW ([…], time 14 day) was 258.2 g, the TERMINAL_BW ([…], time 28 day) was 303.2 g and the APTT ([…], time 7 day) was 15.9 s. The Bas ([…], time 7 day) was 0%, the Eos ([…], time 7 day) was 0.4% and the Fbg ([…], time 7 day) was 204.6 mg/dL. For the same molecule, the Hb ([…], time 7 day) was 15.5 g/dL, the Lym ([…], time 7 day) was 86.4% and the MCH ([…], time 7 day) was 20.9 pg. It also gave an MCHC ([…], time 7 day) of 33.8%, an MCV ([…], time 7 day) of 61.7 fL and a Mono ([…], time 7 day) of 4.8%. It also gave a Neu ([…], time 7 day) of 8.4%, a PT ([…], time 7 day) of 12.6 s and a Plat ([…], time 7 day) of 95.7 x10_4/uL. For the same molecule, the RBC ([…], time 7 day) was 745.2 x10_4/ul, the Ret ([…], time 7 day) was 2.3% and the WBC ([…], time 7 day) was 93.7 x10_2/uL. For the same molecule, the APTT ([…], time 14 day) was 16.1 s, the Bas ([…], time 14 day) was 0% and the Eos ([…], time 14 day) was 0.8%. The Fbg ([…], time 14 day) was 214.5 mg/dL, the Hb ([…], time 14 day) was 14.8 g/dL and the Lym ([…], time 14 day) was 80.2%. It also gave an MCH ([…], time 14 day) of 20.5 pg, an MCHC ([…], time 14 day) of 33.3% and an MCV ([…], time 14 day) of 61.6 fL. The Mono ([…], time 14 day) was 6.2%, the Neu ([…], time 14 day) was 13% and the PT ([…], time 14 day) was 12.3 s. For the same molecule, the Plat ([…], time 14 day) was 95.6 x10_4/uL, the RBC ([…], time 14 day) was 724 x10_4/ul and the Ret ([…], time 14 day) was 3.9%. For the same molecule, the WBC ([…], time 14 day) was 124.5 x10_2/uL, the APTT ([…], time 28 day) was 16.6 s and the Bas ([…], time 28 day) was 0%. The Eos ([…], time 28 day) was 0.8%, the Fbg ([…], time 28 day) was 206 mg/dL and the Hb ([…], time 28 day) was 15.6 g/dL. For the same molecule, the Lym ([…], time 28 day) was 84.2%, the MCH ([…], time 28 day) was 19.4 pg and the MCHC ([…], time 28 day) was 33.7%. The MCV ([…], time 28 day) was 57.7 fL, the Mono ([…], time 28 day) was 4% and the Neu ([…], time 28 day) was 11%. It also gave a PT ([…], time 28 day) of 12.3 s, a Plat ([…], time 28 day) of 73.1 x10_4/uL and an RBC ([…], time 28 day) of 804 x10_4/ul. For the same molecule, the Ret ([…], time 28 day) was 2.5%, the WBC ([…], time 28 day) was 157 x10_2/uL and the KIDNEY_L ([…], time 7 day) was 0.9 g. For the same molecule, the KIDNEY_R ([…], time 7 day) was 0.9 g, the KIDNEY_TOTAL ([…], time 7 day) was 1.8 g and the KIDNEY_L ([…], time 14 day) was 1 g. It also gave a KIDNEY_R ([…], time 14 day) of 1 g, a KIDNEY_TOTAL ([…], time 14 day) of 2.1 g and a KIDNEY_L ([…], time 28 day) of 1.1 g. For the same molecule, the KIDNEY_R ([…], time 28 day) was 1.2 g, the KIDNEY_TOTAL ([…], time 28 day) was 2.3 g and the LIVER ([…], time 7 day) was 9 g. The LIVER ([…], time 14 day) was 11.9 g, the LIVER ([…], time 28 day) was 11.9 g and the ALP ([…], time 7 day) was 653.8 IU/L. It also gave an ALT ([…], time 7 day) of 44.4 IU/L, an AST ([…], time 7 day) of 79.6 IU/L and a BUN ([…], time 7 day) of 28.8 mg/dL. The CRE ([…], time 7 day) was 0.5 mg/dL, the Ca ([…], time 7 day) was 10.3 mg/dL and the Cl ([…], time 7 day) was 105.4 meq/L. For the same molecule, the DBIL ([…], time 7 day) was 0.01 mg/dL, the GLC ([…], time 7 day) was 158.2 mg/dL and the IP ([…], time 7 day) was 7 mg/dL. The K ([…], time 7 day) was 4.4 meq/L, the LDH ([…], time 7 day) was 195.8 IU/L and the Na ([…], time 7 day) was 140.4 meq/L. It also gave a PL ([…], time 7 day) of 184.6 mg/dL, an RALB ([…], time 7 day) of 4.2 g/dL and a TBIL ([…], time 7 day) of 0.2 mg/dL. It also gave a TC ([…], time 7 day) of 101.2 mg/dL, a TG ([…], time 7 day) of 98.6 mg/dL and a TP ([…], time 7 day) of 6.2 g/dL. For the same molecule, the gamma-GTP ([…], time 7 day) was 1 IU/L, the ALP ([…], time 14 day) was 872 IU/L and the ALT ([…], time 14 day) was 44.8 IU/L. The AST ([…], time 14 day) was 81.5 IU/L, the BUN ([…], time 14 day) was 19.8 mg/dL and the CRE ([…], time 14 day) was 0.6 mg/dL. The Ca ([…], time 14 day) was 10.8 mg/dL, the Cl ([…], time 14 day) was 103.2 meq/L and the DBIL ([…], time 14 day) was 0.0025 mg/dL. For the same molecule, the GLC ([…], time 14 day) was 182.8 mg/dL, the IP ([…], time 14 day) was 8.7 mg/dL and the K ([…], time 14 day) was 4.2 meq/L. For the same molecule, the LDH ([…], time 14 day) was 148 IU/L, the Na ([…], time 14 day) was 137.2 meq/L and the PL ([…], time 14 day) was 141 mg/dL. The RALB ([…], time 14 day) was 4.2 g/dL, the TBIL ([…], time 14 day) was 0.2 mg/dL and the TC ([…], time 14 day) was 66.5 mg/dL. For the same molecule, the TG ([…], time 14 day) was 86.8 mg/dL, the TP ([…], time 14 day) was 6.2 g/dL and the gamma-GTP ([…], time 14 day) was 2 IU/L. It also gave an ALP ([…], time 28 day) of 676.6 IU/L, an ALT ([…], time 28 day) of 31.6 IU/L and an AST ([…], time 28 day) of 80.2 IU/L. It also gave a BUN ([…], time 28 day) of 24.2 mg/dL, a CRE ([…], time 28 day) of 0.7 mg/dL and a Ca ([…], time 28 day) of 10.4 mg/dL. It also gave a Cl ([…], time 28 day) of 111.2 meq/L, a DBIL ([…], time 28 day) of 0.022 mg/dL and a GLC ([…], time 28 day) of 170.8 mg/dL. The IP ([…], time 28 day) was 6.2 mg/dL, the K ([…], time 28 day) was 4.4 meq/L and the LDH ([…], time 28 day) was 145.6 IU/L. The Na ([…], time 28 day) was 142 meq/L, the PL ([…], time 28 day) was 114.4 mg/dL and the RALB ([…], time 28 day) was 4.2 g/dL. It also gave a TBIL ([…], time 28 day) of 0.3 mg/dL, a TC ([…], time 28 day) of 57.8 mg/dL and a TG ([…], time 28 day) of 35.4 mg/dL. For the same molecule, the TP ([…], time 28 day) was 6.4 g/dL and the gamma-GTP ([…], time 28 day) was 1.4 IU/L.
